The results in this text go back to BindingDB's records for doi:10.1021/np500198g (University of Tuebingen, 2014).

For the experiment, the target named is T1, Prostaglandin G/H synthase 2 (Homo sapiens, UniProt P35354).
T1 sequence (P35354 whole entry): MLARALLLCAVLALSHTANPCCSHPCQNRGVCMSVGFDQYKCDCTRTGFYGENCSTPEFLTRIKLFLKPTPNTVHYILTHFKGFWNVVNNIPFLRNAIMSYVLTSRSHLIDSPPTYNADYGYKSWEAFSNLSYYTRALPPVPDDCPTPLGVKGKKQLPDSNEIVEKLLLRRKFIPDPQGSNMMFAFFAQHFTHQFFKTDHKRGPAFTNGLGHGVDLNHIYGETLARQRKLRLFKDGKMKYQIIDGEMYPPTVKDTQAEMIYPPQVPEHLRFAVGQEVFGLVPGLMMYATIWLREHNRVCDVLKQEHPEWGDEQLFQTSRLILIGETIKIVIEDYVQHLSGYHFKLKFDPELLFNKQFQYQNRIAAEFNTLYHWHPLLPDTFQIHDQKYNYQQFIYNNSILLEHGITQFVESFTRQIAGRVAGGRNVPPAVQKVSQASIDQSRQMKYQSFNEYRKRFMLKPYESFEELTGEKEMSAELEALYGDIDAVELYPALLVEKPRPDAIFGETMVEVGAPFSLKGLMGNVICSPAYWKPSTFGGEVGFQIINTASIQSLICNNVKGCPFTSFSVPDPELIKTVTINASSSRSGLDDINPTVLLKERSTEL
Nature of the experiment: Inhibition of human recombinant COX-2 using arachidonic acid as substrate preincubated for 5 mins followed by substrate addition measured after 5 mins by HPLC analysis.

SMILES strings stand for the structures.

A word on the IC50: it is the midpoint of a concentration-inhibition curve. As for `CC(C)=CCC[C@H](C(=O)O)[C@@H]1CC[C@]2(C)C3=C(CC[C@@]12C)[C@@]1(C)CC[C@@H](O)C(C)(C)[C@@H]1CC3`, the IC50 was over 10 µM.
